How the values were obtained:
[1] = biological target: T1, recombinant RACK1A protein (Oryza sativa subsp. japonica, UniProt Q6L4F8); experiment: Surface Plasmon Resonance (SPR) binding assay; parameters: species or system rice; conditions: immobilized recombinant RACK1A, KD50=kd/ka
T1 construct: His tag (C); made in house; host or cells: E. coli BL21(DE3)
Experimental: SD-29 (left panel) and SD-29-12 (right panel) were separately injected three times on the CM5 chip at 0, 1.56 μM, at 3.13 μM, 6.25 μM, 12.5 μM, 25 μM, 50 μM, and 100 μM (top sensor) concentrations (left panel) and at 3.13 μM, 6.25 μM, 12.5 μM, 25 μM, 50 μM, and 100 μM (top sensor) concentrations (right panel).
To obtain in vitro confirmation of the binding of the isolated compounds to the purified RACK1 protein, the small compound SD-29 and its structural analog SD29-12 were evaluated for their binding potential with the recombinant RACK1A proteins using the Surface Plasmon Resonance (SPR) chip. SPR experiments were carried out with a Biacore T200 equipped with a CM5 sensor chip. Briefly, recombinant RACK1A cysteine-tagged protein was immobilized on flow cell (FC) 2 in HEPES buffered saline (10 mM Hepes, pH 7.4, and 150 mM NaCl, 3 mM CaCl2)) using a thiol-coupling kit according to the manufacturer's protocol, resulting in immobilization levels of 4580 response units (RU). FC1 was only activated and inactivated and used as a reference. SD-29 stock solution was diluted to a final concentration of 100, 75, 50, 25, 10 μM and 1 μM injected in 10 mM Hepes, 150 mM NaCl, 3 mM CaCl2), 1% DMSO, and 0.5% P20. Each injection was repeated three times for 60 s. […] KD50 is calculated by the equation: KD50=kd/ka; kd—dissociation rate constant, ka—association rate constant. […]

HSV-1 = HSV-1 viral protein western blot in HEp-2 cells; format: cell-based; conditions: pre-treated 24 hours at 100 μM; 24 h after infection
Text: Panel A of FIG. 3 depicts time and concentration dependent virus protein expression to deduce an optimum drug treatment regimen. […] Tubulin expression was used as the loading control for the blots.
HEp-2 cells (ATCC) were used for the infection of HSV-1. The cells were maintained in Dulbecco's Modified Eagle's medium (DMEM) supplemented with 10% fetal calf serum (FCS) and 1% penicillin-streptomycin (PS). Wild-type HSV-1 17 was obtained from R. D. Everett and used previously
Proteins were separated by SDS-PAGE (25 μg loaded in each lane), transferred to nitrocellulose membranes (Amersham Inc., Piscataway, N.J., USA), and blocked with 5% nonfat milk for 60 min at room temperature. Membranes were incubated overnight at 4° C. with primary antibody, followed by incubation with a horseradish peroxidase-coupled secondary antibody and detection with enhanced chemiluminescence (Pierce, Rockford, Ill., USA), according to standard methods. Membranes were stripped with stripping buffer (100 mM 2-mercaptoethanol, 2% SDS, 62.5 mM Tris-HCl, pH 6.8), washed with PBS-0.1% Tween-20, and used to detect additional proteins. For Arabidopsis lysates one-week old seedlings were treated with 10 uM of ABA in the presence/absence of the inhibitor compounds for 12 hours in a growth chamber (overnight) at 22° C. mostly in the dark. […]

T1 sequence (Q6L4F8 whole entry): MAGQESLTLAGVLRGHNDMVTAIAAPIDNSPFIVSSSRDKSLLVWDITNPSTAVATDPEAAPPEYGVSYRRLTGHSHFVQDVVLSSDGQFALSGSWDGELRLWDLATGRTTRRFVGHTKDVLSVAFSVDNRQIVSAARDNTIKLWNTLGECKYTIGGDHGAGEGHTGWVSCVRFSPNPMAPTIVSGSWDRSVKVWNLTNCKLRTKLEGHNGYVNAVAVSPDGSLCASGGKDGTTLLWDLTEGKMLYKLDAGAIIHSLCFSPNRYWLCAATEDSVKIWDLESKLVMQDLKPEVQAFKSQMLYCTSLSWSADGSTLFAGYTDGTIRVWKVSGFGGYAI

Nn1c(S)nnc1-c1ccc(F)cc1 [SD-29]
Kd [1]: 42 µM
HSV-1 protein production (ICP0, ICP8, gD) (HSV-1): repressed HSV-1 protein production

From patent US11596623B2, “Methods for treating virus infection or proliferation” (HOWARD UNIVERSITY, priority 2018, dated 2023)
